Reference: ChEMBL document CHEMBL5131395 (Eur J Med Chem, 2022)
Each block holds one molecule with its values, some of them ahead of it. Activity calls are given as the source filed them. The rule behind the calls is not given here.

How the values were obtained:
[1] = target: Autotaxin (Homo sapiens, UniProt Q13822); experiment: Inhibition of human ATX using FS-3 as substrate preincubated for 45 mins followed by substrate addition measured every 1 min for 30 mins by fluorescence based microplate reader analysis
[2] = Half life in rat at 60 mg/kg, po by LC-MS/MS analysis; type: ADME, organism-based; settings: in vivo
[3] = Downregulation of TGF-beta expression in lung tissue of BLM induced C57BL/6J mouse lung fibrosis model assessed as fold reduction in TGF-beta expression level at 30 to 60 mg/kg, ip by qRT-PCR analysis; type: functional; settings: dose 30-60 mg/kg
[4] = Cmax in rat at 60 mg/kg, po by LC-MS/MS analysis; type: ADME, organism-based; set-up: dose 60 mg/kg, route po; settings: in vivo
[5] = In vivo inhibition of ATX in lung homogenate of BLM induced C57BL/6J mouse lung fibrosis model assessed as reduction in ATX activity using FS-3 as substrate at 60 mg/kg, ip by fluorescence based microplate reader analysis (reference value: 7.78%); type: functional
[6] = AUC (0 to t) in rat at 60 mg/kg, po by LC-MS/MS analysis; type: ADME, organism-based; set-up: dose 60 mg/kg, route po; settings: in vivo
[7] = test system: Mus musculus; experiment: Antifibrotic activity against BLM induced C57BL/6J mouse lung fibrosis model assessed as recovery of body weight at 30 to 60 mg/kg, ip pretreated with compound administered once daily for 3 days followed by BLM treatment and measured after 28 days; type: functional, organism-based; settings: dose 30-60 mg/kg, time 31.0 day
[8] = In vivo inhibition of ATX in lung homogenate of BLM induced C57BL/6J mouse lung fibrosis model assessed as reduction in ATX activity using FS-3 as substrate at 30 mg/kg, ip by fluorescence based microplate reader analysis (reference value: 7.78%); type: functional
[9] = test system: Mus musculus; experiment: (§1) Antifibrotic activity against BLM induced C57BL/6J mouse lung fibrosis model assessed as improvement in lung architecture by measuring appearance of conterminous fibrotic walls at 30 to 60 mg/kg, ip pretreated with compound administered once daily for 3 days followed by BLM treatment and measured after 28 days by hematoxylin and eosin staining based microscopic analysis; type: functional, organism-based; settings: dose 30-60 mg/kg, time 31.0 day
[10] = Downregulation of IL-6 expression in lung tissue of BLM induced C57BL/6J mouse lung fibrosis model assessed as fold reduction in IL-6 expression level at 30 to 60 mg/kg, ip by qRT-PCR analysis; type: functional; settings: dose 30-60 mg/kg
[11] = Downregulation of TNF-alpha expression in lung tissue of BLM induced C57BL/6J mouse lung fibrosis model assessed as fold reduction in TNF-alpha expression level at 30 to 60 mg/kg, ip by qRT-PCR analysis; type: functional; settings: dose 30-60 mg/kg
[12] = test system: Mus musculus; experiment: as §1, with “of” for “of conterminous”, “lesions” for “walls”, “Masson” for “hematoxylin and eosin”; type: functional, organism-based; settings: dose 30-60 mg/kg, time 31.0 day
[13] = AUC (0 to infinity) in rat at 60 mg/kg, po by LC-MS/MS analysis; type: ADME, organism-based; set-up: time infinity, dose 60 mg/kg, route po; settings: in vivo
[14] = In vivo inhibition of ATX in BALF of BLM induced C57BL/6J mouse lung fibrosis model assessed as reduction in ATX activity using FS-3 as substrate at 30 to 60 mg/kg, ip by fluorescence based microplate reader analysis (reference value: 4.50%); type: functional, Bronchoalveolar lavage; settings: dose 30-60 mg/kg
[15] = Tmax in rat at 60 mg/kg, po by LC-MS/MS analysis; type: ADME, organism-based; settings: in vivo
[16] = Cytotoxicity against human HBE cells assessed as lethal dose; type: toxicity, cell-based; settings: HBE cells (epithelial cell line), read-out: LD50 (the source's name)
[17] = test system: Mus musculus; experiment: as §1, with “of” for “of conterminous”, “lesions” for “walls”; type: functional, organism-based; settings: dose 30-60 mg/kg, time 31.0 day
[18] = test system: Mus musculus; experiment: as §1, with “Masson” for “hematoxylin and eosin”; type: functional, organism-based; settings: dose 30-60 mg/kg, time 31.0 day
[19] = Downregulation of TGF-beta expression in lung tissue of BLM induced C57BL/6J mouse lung fibrosis model assessed as fold reduction in TGF-beta expression level at 60 mg/kg, ip by qRT-PCR analysis; type: functional
[20] = Downregulation of TNF-alpha expression in lung tissue of BLM induced C57BL/6J mouse lung fibrosis model assessed as fold reduction in TNF-alpha expression level at 60 mg/kg, ip by qRT-PCR analysis; type: functional
[21] = Downregulation of IL-6 expression in lung tissue of BLM induced C57BL/6J mouse lung fibrosis model assessed as fold reduction in IL-6 expression level at 60 mg/kg, ip by qRT-PCR analysis; type: functional
[22] = test system: Mus musculus; experiment: as §1, with “of” for “of conterminous”, “lesions” for “walls”, “at” for “at 30 to”; type: functional, organism-based; settings: time 31.0 day
[23] = test system: Mus musculus; experiment: as §1, with “at” for “at 30 to”; type: functional, organism-based; settings: time 31.0 day
[24] = test system: Mus musculus; experiment: as §1, with “of” for “of conterminous”, “lesions” for “walls”, “at” for “at 30 to”, “Masson” for “hematoxylin and eosin”; type: functional, organism-based; settings: time 31.0 day
[25] = test system: Mus musculus; experiment: Antifibrotic activity against BLM induced C57BL/6J mouse lung fibrosis model assessed as recovery of body weight at 60 mg/kg, ip pretreated with compound administered once daily for 3 days followed by BLM treatment and measured after 28 days; type: functional, organism-based; settings: time 31.0 day
[26] = test system: Mus musculus; experiment: as §1, with “at” for “at 30 to”, “Masson” for “hematoxylin and eosin”; type: functional, organism-based; settings: time 31.0 day
[27] = Clearance in rat at 60 mg/kg, po by LC-MS/MS analysis; type: ADME, organism-based; settings: in vivo

- IC50 [1]: 30 nM
Structure (SMILES): CCn1cc(NC(=O)NCc2ccc(Cl)cc2)c2cc(-c3nc(CN(CCO)CCO)cs3)ccc21

Structure (SMILES): CCn1cc(NC(=O)NCc2ccc(OC)c(Cl)c2)c2cc(-c3nc(CN(CCO)CCO)cs3)ccc21
- half-life [2]: 3.11 h
- fold change (FC) [3]: 2
- Cmax [4]: 131 ng/mL
- inhibition in vivo at 60 mg/kg [5]: 5.03%
- AUC(0-t) [6]: 670 ng·h/mL
- IC50 [1]: 2.17 nM
- Activity [7]: Active
- inhibition in vivo at 30 mg/kg [8]: 5.59%
- Activity [9]: Active
- fold change (FC) [10]: 2
- fold change (FC) [11]: 2
- Activity [12]: Active
- AUC [13]: 680 ng·h/mL
- inhibition (INH) [14]: 3.23%
- Tmax [15]: 3.91 h
- CC50 [16]: > 20000 nM
- Activity [17]: Active
- Activity [18]: Active

Structure (SMILES): CCc1nc2c(C)cc(N3CCN(CC(=O)N4CC(O)C4)CC3)cn2c1N(C)c1nc(-c2ccc(F)cc2)c(C#N)s1 [ZIRITAXESTAT]
- fold change (FC) [19]: 2
- fold change (FC) [20]: 2
- inhibition in vivo at 60 mg/kg [5]: 5.54%
- fold change (FC) [21]: 2
- Activity [22]: Active
- Activity [23]: Active
- Activity [24]: Active
- Activity [25]: Active
- Activity [26]: Active

- half-life [2]: 2.56 h
- Cmax ([4]; read-out: Cmax): 50 ng/mL
- AUCt [6]: 240 ng·h/mL
- AUC [13]: 240 ng·h/mL
- CL/F [27]: 6.35 mL/min/kg
- Tmax [15]: 2.67 h
Structure (SMILES): CCn1cc(NC(=O)OCc2cc(Cl)cc(Cl)c2)c2cc(-c3nc(CN4CCOCC4)cs3)ccc21
